Legend:
[1] = test system: model mice of hyperglycemia (KKAy mouse); experiment: Amount of 13CO2 excreted in exhaled gas after oral glucose-U-13C6; assay type: in vivo; settings: 0.1% by mass in high fat diet for one week, four hours after oral glucose-U-13C6, versus control group
Protocol: Twenty-four model mice of hyperglycemia (KKAy mouse (product of CLEA Japan, Inc.), male, four weeks old) were preliminarily bred for one week in individual cages under the following conditions: temperature: room temperature (22° C.±1° C.), humidity: 50%±5%, and light-dark cycle: 12 hours. Eight grams per day of CE-2 (product of CLEA Japan, Inc.) was given to each mouse as feed during the preliminary breeding, while water was given ad libitum. […] Thereafter, an aqueous solution of glucose and glucose-U-^13C6 was orally administered to each mouse at a concentration calculated from the following: [2.0 g D-glucose (product of NACALAI TESQUE, INC.)+72 mg D-glucose-U-^13C6 (99%) (product of Cambridge Isotope Lab.)/kg-body weight]. Then, the cumulative amount of ^13CO2 excreted was measured for four hours. The cumulative amount of ^13CO2 excreted is expressed as AUC (increment in the amount of ^13CO2 excreted). Here, the AUC (increment in the amount of ^13CO2 excreted) refers to an area corresponding to the increment between the amount of ^13CO2^3 excreted prior to administration of glucose-U-^13C6 (baseline) to the amount of ^13CO2 excreted measured four hours after administration of glucose-U-^13C6 in a graph where a change in the amount of ^13CO2 excreted is plotted against time after administration of glucose-U-^13C6.

[2] = test system: model mice of hyperglycemia (KKAy mouse); experiment: Blood sugar level of KKAy mice after one-week main breeding on high fat diet containing PT or PD; assay type: in vivo; settings: 0.1% by mass in high fat diet (control group 335.4 mg/dL)
Protocol: Twenty-four model mice of hyperglycemia (KKAy mouse (product of CLEA Japan, Inc.), male, four weeks old) were preliminarily bred for one week in individual cages under the following conditions: temperature: room temperature (22° C.±1° C.), humidity: 50%±5%, and light-dark cycle: 12 hours. Eight grams per day of CE-2 (product of CLEA Japan, Inc.) was given to each mouse as feed during the preliminary breeding, while water was given ad libitum. After completion of the preliminary breeding, the mice were measured for body weight and blood sugar level. Then, they were divided into three groups, each containing eight mice, so that the body weights and blood sugar levels were averaged in the three groups, followed by main breeding in a manner described below. […] GB SENSOR (product of Sanko Junyaku Co., Ltd.) using the whole blood sampled from the tale vein of the mouse. The mice of one group were subjected to main breeding for one week under the conditions that eight grams per day of a commercially available high fat diet (trade name: Quick Fat, product of CLEA Japan, Inc.) was given to each mouse while water was given ad libitum. […] Hereinafter, this group may be referred to as “PD-administered group.” After the one-week main breeding, the mice were measured for blood sugar level and body weight, and then were subjected to measurement of the amount of ^13CO2 excreted.

SMILES | amount of 13CO2 excreted [1] | blood sugar level [2] [mg/dL]
CC1(C)CCC[C@](C)([C@H]2CC[C@]3(C)[C@@H]2[C@H](O)C[C@@H]2[C@@]4(C)CC[C@H](O)C(C)(C)[C@@H]4CC[C@]23C)O1 [PD, panaxadiol] | significantly increased | 231.6
CC1(C)CCC[C@](C)([C@H]2CC[C@]3(C)[C@@H]2[C@H](O)C[C@@H]2[C@@]4(C)CC[C@H](O)C(C)(C)[C@@H]4[C@@H](O)C[C@]23C)O1 [PT, panaxatriol] | significantly increased | 199.3

Source: patent publication US20120116069A1, “GLUCOSE METABOLISM-IMPROVING AGENT AND GLUCOSE METABOLISM-IMPROVING COMPOSITION” (LION CORPORATION, priority 2009, published 2012)
